Several values for one entry are separate records, joined by “and”; a condition that tells them apart may be missing. Identical values can stand only once. Activity calls are given as the source filed them.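 How the source made its calls: active means fitted curve drops past -35% activity change at a concentration no higher than twice the top valid tested dose; inconclusive means no clear call, values can overlap the other calls; inactive means the rest, including activity opposite to the expected direction.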
System: A549 viability, CellTiter-Glo ATP luminescence, 72 h
Test: viability loss in A549 lung cells – cell-based, luminescence, dry powder, set 12, cytotoxicity control, dose response (AID 743472)
Conditions: not given
In the case of `COc1ccccc1-c1nnc2n1N=C(c1ccc3c(c1)OCO3)CS2`, the AC35 is reported as 0.102 µM. `N#CC1=C(N)Oc2cc(N)ccc2C1c1ccccc1` (stereo not drawn) gave an AC35 of 22.9 µM. In the case of `COc1ccc(S(=O)(=O)N2CC[C@@H]3[C@H](CO)Nc4ccc(-c5ccc(C#N)cc5)cc4[C@@H]32)cc1`, the AC35 is reported as 10.7 µM. In the case of `COc1ccc(C2=Nn3c(nnc3-c3ccccc3F)SC2)cc1OC`, the AC35 is reported as 6.11 µM. In the case of `COc1ccc(C(=O)CC2(O)C(=O)Nc3c(Cl)ccc(Cl)c32)cc1` (stereo not drawn), the AC35 is reported as 5.48 µM. In the case of `COc1ccc(S(=O)(=O)N2CC[C@@H]3[C@@H](CO)Nc4ccc(-c5cccc(C#N)c5)cc4[C@@H]32)cc1`, the AC35 is reported as 13.2 µM. In the case of `COc1cccc(S(=O)(=O)N2CC[C@@H]3[C@@H](CO)Nc4ccc(-c5ccc(C#N)cc5)cc4[C@@H]32)c1`, the AC35 is reported as 26.4 µM. `N#CC1=C(N)Oc2cc3c(cc2C1c1cccc(Br)c1)OCO3` (stereo not drawn) showed an AC35 of 0.0624 µM. In the case of `Cn1cc(-c2ccncc2)c(-c2ccc(OCc3ccc4ccccc4n3)cc2)n1`, the AC35 is reported as 19.3 µM. For `COc1ccccc1-c1nnc2n1N=C(c1ccc(O)c(O)c1)CS2`, the AC35 was 0.314 µM. With `N#Cc1ccc(-c2ccc3c(c2)[C@H]2[C@H](CCN2S(=O)(=O)c2cccc(F)c2)[C@@H](CO)N3)cc1` the AC35 was 21.4 µM. Work on `CN1CCN(CCOc2cc(OC3CCOCC3)c3c(Nc4c(Cl)ccc5c4OCO5)ncnc3c2)CC1` yielded an AC35 of 26.1 µM. Molecule `CC(C)N1c2ccccc2C(c2ccc(F)cc2)C1/C=C/C(O)CC(O)CC(=O)O` (stereo not drawn) has an AC35 of 23.9 µM. `COc1cccc2c1C(=O)c1c(O)c3c(c(O)c1C2=O)C[C@@](O)(C(=O)CO)C[C@@H]3O[C@H]1C[C@H](N)[C@H](O)[C@H](C)O1` showed an AC35 of 0.333 µM. `COc1ccc(C2=Nn3c(nnc3-c3ccccc3Cl)SC2)cc1OC` showed an AC35 of 3.06 µM. `COc1ccc(S(=O)(=O)N2CC[C@@H]3[C@@H](CO)N(C)c4ccc(-c5ccc(F)cc5)cc4[C@@H]32)cc1` showed an AC35 of 7.15 µM. For `CN(C)c1ccc2c(c1)OC(N)=C(C#N)C2c1cccc(F)c1` (stereo not drawn), the AC35 was 0.0738 µM. With `COc1ccc(OC)c(-c2nnc3n2N=C(c2ccc(OC)c(OC)c2)CS3)c1` the AC35 was 0.192 µM and 0.123 µM. `N#CC1=C(N)Oc2cc(N)ccc2C1c1ccccc1Cl` (stereo not drawn) gave an AC35 of 32.9 µM. Work on `COc1ccc(-c2cc(NC=O)c3ncc(-c4ccc(OC)c(OC)c4)n3c2)cc1` yielded an AC35 of 1.18 µM. For `Cc1cccc(C2C(C#N)=C(N)Oc3cc(N)ccc32)c1` (stereo not drawn), the AC35 was 3.89 µM. For `N#CC1=C(N)Oc2cc(OC(=O)c3ccccc3)ccc2C1c1cccc(Br)c1` (stereo not drawn), the AC35 was 19.4 µM. `COc1ccc(-c2ccc3c(c2)[C@H]2[C@H](CCN2S(=O)(=O)c2ccc(OC)cc2)[C@@H](CO)N3)cc1` showed an AC35 of 12.5 µM. In the case of `Cc1cc(Nc2cc(N3CCN(C)CC3)nc(Sc3ccc(NC(=O)C4CC4)cc3)n2)n[nH]1`, the AC35 is reported as 10.2 µM. Molecule `C[C@@]1(C(=O)Nc2ccc(F)nc2)CCCN1c1nc(Nc2cc(C3CC3)[nH]n2)c2cccn2n1` has an AC35 of 3.48 µM. Molecule `Cc1nc(Nc2ncc(C(=O)Nc3c(C)cccc3Cl)s2)cc(N2CCN(CCO)CC2)n1` has an AC35 of 12.2 µM. In the case of `C=C([C@@H](O)[C@@H](C)O)[C@@H](OC)[C@]1(C)Cc2cc3cc(O[C@H]4CC(OC5CC(O)C(O)C(C)O5)C(O)C(C)O4)cc(O)c3c(O)c2C(=O)[C@H]1OC1CC(OC2CC(OC3CC(C)(O)C(O)C(C)O3)C(O)C(C)O2)C(O)C(C)O1` (stereo partly drawn), the AC35 is reported as 0.111 µM. Work on `CC[C@]1(O)CC2CN(CCc3c([nH]c4ccccc34)[C@@](C(=O)OC)(c3cc4c(cc3OC)N(C=O)[C@H]3[C@@](O)(C(=O)OC)[C@H](OC(C)=O)[C@]5(CC)C=CCN6CC[C@]43[C@@H]65)C2)C1` (stereo partly drawn) yielded an AC35 of 0.285 µM. With `Clc1ccccc1-c1nnc2n1N=C(c1ccc3c(c1)OCO3)CS2` the AC35 was 0.945 µM. For `N#Cc1ccc(-c2ccc3c(c2)[C@H]2[C@H](CCN2S(=O)(=O)c2ccccc2F)[C@@H](CO)N3)cc1`, the AC35 was 17 µM. `COc1ccc(-c2cc(NC(C)=O)c3ncc(-c4ccc(OC)c(OC)c4)n3c2)cc1` showed an AC35 of 29.9 µM. Molecule `COc1ccc(-c2ccc3c(c2)[C@H]2[C@H](CCN2S(=O)(=O)c2ccc(OC)cc2)[C@@H](CO)N3C)cc1` has an AC35 of 9.11 µM. Work on `N#CC1=C(N)Oc2cc(N)ccc2C1c1cccc(F)c1` (stereo not drawn) yielded an AC35 of 10.8 µM. With `N#CC1=C(N)Oc2cc(N)ccc2C1c1ccc2ccccc2c1` (stereo not drawn) the AC35 was 28.4 µM. `N#CC1=C(N)Oc2cc(O)ccc2C1c1cccc(Br)c1` (stereo not drawn) showed an AC35 of 11.4 µM. `COc1cccc(C2C(C#N)=C(N)Oc3cc(N)ccc32)c1` (stereo not drawn) showed an AC35 of 4.76 µM. `CCOC(=O)CCNc1cc(N2CCc3ccccc3CC2)nc(-c2ccccn2)n1` showed an AC35 of 37.2 µM. Work on `CN1c2ccc(-c3ccc(C#N)cc3)cc2[C@H]2[C@H](CCN2S(=O)(=O)c2cccc(F)c2)[C@H]1CO` yielded an AC35 of 6.56 µM. `N#CC1=C(N)Oc2ccc3ccccc3c2C1c1cccc(F)c1` (stereo not drawn) showed an AC35 of 3.88 µM. Molecule `CCc1c2c(nc3ccc(O)cc13)-c1cc3c(c(=O)n1C2)COC(=O)C3(O)CC` (stereo not drawn) has an AC35 of 0.579 µM. For `COc1cc(C2C(C#N)=C(N)Oc3cc(N(C)C)ccc32)cc2c1OCO2` (stereo not drawn), the AC35 was 0.0402 µM. With `N#CC1=C(N)Oc2cc(N)ccc2C1c1cccc(Br)c1` (stereo not drawn) the AC35 was 0.488 µM. In the case of `Nc1ncnc2c1c(-c1cccc(OCc3ccccc3)c1)cn2C1CC(CN2CCCC2)C1` (stereo not drawn), the AC35 is reported as 13.7 µM. In the case of `COc1ccc(S(=O)(=O)N2CC[C@@H]3[C@@H](CO)Nc4ccc(-c5ccc(C#N)cc5)cc4[C@@H]32)cc1`, the AC35 is reported as 9.8 µM. In the case of `COc1ccc(C2=Nn3c(nnc3-c3ccccc3OC)SC2)cc1OC`, the AC35 is reported as 0.205 µM. `COc1ccccc1S(=O)(=O)N1CC[C@@H]2[C@@H](CO)Nc3ccc(-c4ccc(C#N)cc4)cc3[C@@H]21` gave an AC35 of 22.6 µM. For `Cc1c([C@H](C(Cl)Cl)[C@H](O)[C@H]2C[C@H](C)C(=O)O2)ccc2c1C(=O)[C@H]1[C@H]2C[C@@H](Br)[C@@]23O[C@@H](CO[C@H]2O)C[C@]13C`, the AC35 was 3.44 µM. Work on `O=C(Cc1ccc(-c2ccc(OCCN3CCOCC3)cc2)cn1)NCc1ccccc1` yielded an AC35 of 0.0854 µM. With `Nc1ccn([C@@H]2O[C@H](CO)[C@H](O)C2O)c(=O)n1` (stereo partly drawn) the AC35 was 0.686 µM.

System: not listed separately
Test: as above
Conditions: A549 viability, CellTiter-Glo ATP luminescence, 72 h; at 1.35 µM (top of the series)
For `COc1cc([C@@H]2c3cc4c(cc3[C@@H](O[C@@H]3O[C@@H]5CO[C@@H](C)O[C@H]5[C@H](O)[C@H]3O)[C@H]3COC(=O)[C@H]23)OCO4)cc(OC)c1O`, the activity change, negative = cytotoxicity was -9.02% (inactive).

Same assay, conditions: A549 viability, CellTiter-Glo ATP luminescence, 72 h; at 1.6 µM (top of the series)
With `CCN(CCO)CCCOc1ccc2c(Nc3cc(CC(=O)Nc4cccc(F)c4)[nH]n3)ncnc2c1` the activity change, negative = cytotoxicity was -5.27% (inactive).

Same assay, conditions: A549 viability, CellTiter-Glo ATP luminescence, 72 h; at 3 µM (top of the series)
In the case of `CC[C@@]1(O)C(=O)OCc2c1cc1n(c2=O)Cc2cc3c(CN(C)C)c(O)ccc3nc2-1`, the activity change, negative = cytotoxicity is reported as -28% (inactive).

Same assay, conditions: A549 viability, CellTiter-Glo ATP luminescence, 72 h; at 6 µM (top of the series)
In the case of `Clc1ccc(-c2cnc3ccc(-c4ccccc4)cn23)cc1`, the activity change, negative = cytotoxicity is reported as 9.24% (inactive).

Same assay, conditions: A549 viability, CellTiter-Glo ATP luminescence, 72 h; at 12 µM (top of the series)
For `COc1ccc(NC(=O)Nc2ccc3c(c2)C(=O)N([C@@H](C)CO)C[C@H](C)[C@H](CN(C)Cc2ccc4c(c2)OCO4)O3)cc1`, the activity change, negative = cytotoxicity was -11.8% (inactive).

Same assay, conditions: A549 viability, CellTiter-Glo ATP luminescence, 72 h; at 13.5 µM (top of the series)
With `CC(C)(O)CCc1ccc(O)c2c(=O)c3c(O)c4c(cc3oc12)O[C@H]1OC=C[C@@]41O` the activity change, negative = cytotoxicity was -4.12% (inactive).

Same assay, conditions: A549 viability, CellTiter-Glo ATP luminescence, 72 h; at 26 µM (top of the series)
For `O=C(Nc1c(Cl)cncc1Cl)c1ccc(OC(F)F)c(OCC2CC2)c1`, the activity change, negative = cytotoxicity was 2.06% (inactive). With `N#CC1=C(N)Oc2cc(N)ccc2C12C(=O)Nc1ccc(Br)cc12` (stereo not drawn) the activity change, negative = cytotoxicity was -0.931% (inactive). For `CN1c2ccc(-c3ccc(C#N)cc3)cc2[C@H]2[C@H](CCN2S(=O)(=O)c2ccc(F)cc2)[C@H]1CO`, the activity change, negative = cytotoxicity was 10.6% (inactive). For `COc1ccc(S(=O)(=O)N(C(C)=O)c2ccc(OC(C)=O)c3ccccc23)cc1[N+](=O)[O-]`, the activity change, negative = cytotoxicity was -4.12% (inactive). With `COc1ccccc1C1C(C#N)=C(N)Oc2cc(N)ccc21` (stereo not drawn) the activity change, negative = cytotoxicity was 3.41% (inactive). With `CCC(C)(C)C(=O)O[C@H]1C[C@@H](C)C=C2C=C[C@H](C)[C@H](CC[C@@H]3C[C@@H](O)CC(=O)O3)[C@H]21` the activity change, negative = cytotoxicity was 2.27% (inactive). With `COc1ccc(C2C(C#N)=C(N)Oc3cc(N)ccc32)cc1` (stereo not drawn) the activity change, negative = cytotoxicity was 0.547% (inactive). For `CC1(C)CC(c2nc(-c3ccc4ccc(-c5ccccc5)nc4c3)c3c(N)nccn23)C1`, the activity change, negative = cytotoxicity was -21.6% (inactive). In the case of `COc1ccc(C2=Nn3c(nnc3-c3ccccc3)SC2)cc1OC`, the activity change, negative = cytotoxicity is reported as -5.8% (inactive). For `Cc1ccc(S(=O)(=O)N2CC[C@@H]3[C@@H](CO)Nc4ccc(-c5ccc(C#N)cc5)cc4[C@@H]32)cc1`, the activity change, negative = cytotoxicity was -24.8% (inactive). With `COC(=O)c1ccc(C2C(C#N)=C(N)Oc3cc(N)ccc32)cc1` (stereo not drawn) the activity change, negative = cytotoxicity was 4.1% (inactive). For `C[C@]1(c2nc3c(C(N)=O)cccc3[nH]2)CCCN1`, the activity change, negative = cytotoxicity was 8.64% (inactive). In the case of `COc1cc(Nc2ncc3c(n2)-c2ccc(Cl)cc2C(c2c(F)cccc2OC)=NC3)ccc1C(=O)O`, the activity change, negative = cytotoxicity is reported as -19.8% (inactive). In the case of `COc1ccc(CNc2nc(N3CCC[C@H]3CO)ncc2C(=O)NCc2ncccn2)cc1Cl`, the activity change, negative = cytotoxicity is reported as -5.08% (inactive). For `Cc1ccc([N+](=O)[O-])cc1S(=O)(=O)N(C)C`, the activity change, negative = cytotoxicity was -2.86% (inactive). In the case of `Cc1ccccc1C1C(C#N)=C(N)Oc2cc(N)ccc21` (stereo not drawn), the activity change, negative = cytotoxicity is reported as -2.49% (inactive). In the case of `Cc1ccc(C2C(C#N)=C(N)Oc3cc(N)ccc32)cc1` (stereo not drawn), the activity change, negative = cytotoxicity is reported as 2.98% (inactive). With `N#CC1=C(N)Oc2cc(N)ccc2C1c1ccc(Cl)cc1` (stereo not drawn) the activity change, negative = cytotoxicity was -4.23% (inactive). With `CN(C(=O)CCCOc1ccc2[nH]c(=O)ccc2c1)C1CCCCC1` the activity change, negative = cytotoxicity was -2.41% (inactive). For `COc1ccc(C2CNC(=O)C2)cc1OC1CCCC1` (stereo not drawn), the activity change, negative = cytotoxicity was 3.58% (inactive).

Same assay, conditions: A549 viability, CellTiter-Glo ATP luminescence, 72 h; at 50 µM (top of the series)
For `O=P1(NCCCl)OCCCN1CCCl` (stereo not drawn), the activity change, negative = cytotoxicity was 1.11% (inactive).

Same assay, conditions: A549 viability, CellTiter-Glo ATP luminescence, 72 h; at 100 µM (top of the series)
In the case of `CCC(C)C(=O)OC1CC(C)C=C2C=CC(C)C(CCC(O)CC(O)CC(=O)O)C21` (stereo not drawn), the activity change, negative = cytotoxicity is reported as -13.1% (inactive).

Same assay, conditions: A549 viability, CellTiter-Glo ATP luminescence, 72 h; at 110 µM (top of the series)
In the case of `O=C(c1cc(Cc2n[nH]c(=O)c3ccccc23)ccc1F)N1CCN(C(=O)C2CC2)CC1`, the activity change, negative = cytotoxicity is reported as -14.2% (inactive).
